Test results published in patent US10597388B2, “Pyridazinone herbicides” (FMC CORPORATION, priority 2014, dated 2020).

Key:
Assay type in all cases: in vivo
[1] = system: nutsedge, yellow (yellow nutsedge, Cyperus esculentus); assay: Test C greenhouse herbicide test, pre- and postemergence
Summary of the method: (§1)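 Greenhouse pots; pre-em on seeded loam:sand blend, post-em on 2–18 cm plants (1–4 leaf) in sphagnum peat/vermiculite medium. Formulation: non-phytotoxic solvent + surfactant. Read-out: visual % control (0–100) vs controls at 13–15 d.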

[2] = system: ragweed (common ragweed, Ambrosia elatior); assay: as above
Summary of the method: as §1

[3] = system: velvetleaf (Abutilon theophrasti); assay: as above
Summary of the method: as §1

[4] = system: pigweed (Amaranthus retroflexus); assay: as above
Summary of the method: as §1

[5] = system: galium (catchweed bedstraw, Galium aparine); assay: as above
Summary of the method: as §1

[6] = system: blackgrass (Alopecurus myosuroides); assay: as above
Summary of the method: as §1

[7] = system: barnyardgrass (Echinochloa crus-galli); assay: as above
Summary of the method: as §1

[8] = system: ryegrass, Italian (Italian ryegrass, Lolium multiflorum); assay: as above
Summary of the method: as §1

soybean (Glycine max) = assay: as above
Summary of the method: as §1

[9] = system: galium (catchweed bedstraw, Galium aparine); assay: Test A greenhouse herbicide test, postemergence
Summary of the method: (§2)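 Seedlings in a loam soil and sand mix received formulated compound postemergence at the one- to two-leaf stage. Greenhouse holding lasts approximately 10 d, then injury is scored visually relative to untreated plants, 0 meaning no effect and 100 complete control.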

[10] = system: blackgrass (Alopecurus myosuroides); assay: Test A greenhouse herbicide test, postemergence
Summary of the method: as §2

[11] = system: chickweed (common chickweed, Stellaria media); assay: Test C greenhouse herbicide test, postemergence; details: for Plant response rating, Chickweed: Postemergence
Summary of the method: (§3)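 Greenhouse postemergence spray on plants 2–18 cm tall; response judged visually after 13–15 d relative to untreated controls using a 0 (none) to 100 (full control) scale.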

kochia (Kochia scoparia) = assay: Test C greenhouse herbicide test, postemergence; details: Postemergence
Summary of the method: as §3

[12] = system: oat, wild (wild oat, Avena fatua); assay: Test C greenhouse herbicide test, postemergence; details: Postemergence
Summary of the method: as §3

[13] = Postemergence, 31 g ai/ha, scale 0 to 100 (0 no effect, 100 complete control)
[14] = Postemergence, 125 g ai/ha, scale 0 to 100, 0 is no effect, 100 is complete control
[15] = Postemergence, 250 g ai/ha, scale 0 to 100, 0 no effect, 100 complete control, 13 to 15 d
[16] = Preemergence, 31 g ai/ha, scale 0 to 100, 0 is no effect, 100 is complete control
[17] = Preemergence, 62 g ai/ha, scale 0 to 100, 0 is no effect, 100 is complete control
[18] = Preemergence, 125 g ai/ha, scale 0 to 100, 0 is no effect, 100 is complete control
[19] = Preemergence, 250 g ai/ha, scale 0 to 100, 0 no effect, 100 complete control
[20] = postemergence, 62 g ai/ha, scale 0 to 100, 0 no effect, 100 complete control
[21] = 125 g ai/ha, 0 to 100 scale where 0 is no effect and 100 is complete control
[22] = 31 g ai/ha, scale 0 to 100 (0 no effect, 100 complete control)
[23] = 125 g ai/ha, scale 0 to 100, 0 is no effect, 100 is complete control
[24] = 250 g ai/ha, scale 0 to 100, 0 no effect, 100 complete control, 13 to 15 d

CC(=O)Oc1c(C)nn(C)c(=O)c1-c1c(C)sc2ccc(Cl)cc12 [Compound 108]
Plant response rating, Nutsedge, Yellow [1, 13]: 30 | Plant response rating, Nutsedge, Yellow [1, 14]: 70 | Plant response rating, Nutsedge, Yellow [1, 15]: 75 | Plant response rating, Nutsedge, Yellow [1, 16]: 35 | Plant response rating, Nutsedge, Yellow [1, 17]: 80 | Plant response rating, Nutsedge, Yellow [1, 18]: 70 | Nutsedge, Yellow plant response rating [1, 19]: 80 | Plant response rating, Ragweed [2, 13]: 90 | Plant response rating, Ragweed [2, 14]: 98 | Plant response rating, Ragweed [2, 15]: 100 | Plant response rating, Ragweed [2, 16]: 75 | Plant response rating, Ragweed [2, 17]: 90 | Plant response rating, Ragweed [2, 18]: 98 | Ragweed plant response rating [2, 19]: 98 | Plant response rating, Velvetleaf [3, 13]: 70 | Plant response rating, Velvetleaf [3, 14]: 100 | Plant response rating, Velvetleaf [3, 15]: 100 | Plant response rating, Velvetleaf [3, 16]: 50 | Plant response rating, Velvetleaf [3, 17]: 75 | Plant response rating, Velvetleaf [3, 18]: 85 | Velvetleaf plant response rating [3, 19]: 90 | Plant response rating, Pigweed [4, 13]: 90 | Plant response rating, Pigweed [4, 14]: 98 | Plant response rating, Pigweed [4, 15]: 98 | Plant response rating, Pigweed [4, 16]: 100 | Plant response rating, Pigweed [4, 17]: 100 | Plant response rating, Pigweed [4, 18]: 100 | Pigweed plant response rating [4, 19]: 100 | Plant response rating, Galium [5, 13]: 90 | Plant response rating, Galium [5, 14]: 95 | Plant response rating, Galium [5, 15]: 95 | Plant response rating, Galium [5, 16]: 90 | Plant response rating, Galium [5, 17]: 90 | Plant response rating, Galium [5, 18]: 95 | Galium plant response rating [5, 19]: 95 | Plant response rating, Blackgrass [6, 13]: 15 | Plant response rating, Blackgrass [6, 14]: 35 | Plant response rating, Blackgrass [6, 15]: 55 | Plant response rating, Blackgrass [6, 16]: 10 | Plant response rating, Blackgrass [6, 17]: 0 | Plant response rating, Blackgrass [6, 18]: 60 | Blackgrass plant response rating [6, 19]: 85 | Blackgrass plant response rating [6, 20]: 35 | Plant response rating, Barnyardgrass [7, 13]: 20 | Plant response rating, Barnyardgrass [7, 14]: 40 | Plant response rating, Barnyardgrass [7, 15]: 60 | Plant response rating, Barnyardgrass [7, 16]: 5 | Plant response rating, Barnyardgrass [7, 17]: 35 | Plant response rating, Barnyardgrass [7, 18]: 35 | Barnyardgrass plant response rating [7, 19]: 85 | Barnyardgrass plant response rating [7, 20]: 35 | Plant response rating, Ryegrass, Italian [8, 13]: 90 | Plant response rating, Ryegrass, Italian [8, 14]: 90 | Plant response rating, Ryegrass, Italian [8, 15]: 90 | Plant response rating, Ryegrass, Italian [8, 16]: 60 | Plant response rating, Ryegrass, Italian [8, 17]: 85 | Plant response rating, Ryegrass, Italian [8, 18]: 90 | Ryegrass, Italian plant response rating [8, 19]: 95 | Plant response rating, Soybean (soybean (Glycine max); [13]): 10 | Plant response rating, Soybean (soybean (Glycine max); [14]): 15 | Plant response rating, Soybean (soybean (Glycine max); [15]): 15 | Plant response rating, Soybean (soybean (Glycine max); [16]): 0 | Plant response rating, Soybean (soybean (Glycine max); [17]): 0 | Plant response rating, Soybean (soybean (Glycine max); [18]): 0 | Soybean plant response rating (soybean (Glycine max); [19]): 0 | Plant response rating, Galium [9, 21]: 100 | Plant response rating, Galium ([9]; 500 g ai/ha, visual rating after approx. 10 d, 0 to 100 scale (0 no effect, 100 complete control)): 100 | Plant response rating, Blackgrass [10, 21]: 80 | Blackgrass plant response rating ([10]; 500 g ai/ha, 0 to 100 scale, 0 is no effect, 100 is complete control): 90 | Plant response rating, Chickweed [11, 22]: 90 | Plant response rating, Chickweed [11, 23]: 95 | Plant response rating, Chickweed [11, 24]: 98 | Chickweed plant response rating [11, 20]: 90 | Plant response rating, Kochia (kochia (Kochia scoparia); [22]): 90 | Plant response rating, Kochia (kochia (Kochia scoparia); [23]): 95 | Plant response rating, Kochia (kochia (Kochia scoparia); [24]): 100 | Plant response rating, Oat, Wild [12, 22]: 80 | Plant response rating, Oat, Wild [12, 23]: 90 | Plant response rating, Oat, Wild [12, 24]: 90
